SMILES strings stand for the structures.

In general, IC50 refers to the concentration that inhibits the measured activity by half. A high value points to weaker potency.

The test has as its target T1, Polyphenol oxidase 1 (White button mushroom, UniProt Q00024).
T1 sequence (Q00024 whole entry): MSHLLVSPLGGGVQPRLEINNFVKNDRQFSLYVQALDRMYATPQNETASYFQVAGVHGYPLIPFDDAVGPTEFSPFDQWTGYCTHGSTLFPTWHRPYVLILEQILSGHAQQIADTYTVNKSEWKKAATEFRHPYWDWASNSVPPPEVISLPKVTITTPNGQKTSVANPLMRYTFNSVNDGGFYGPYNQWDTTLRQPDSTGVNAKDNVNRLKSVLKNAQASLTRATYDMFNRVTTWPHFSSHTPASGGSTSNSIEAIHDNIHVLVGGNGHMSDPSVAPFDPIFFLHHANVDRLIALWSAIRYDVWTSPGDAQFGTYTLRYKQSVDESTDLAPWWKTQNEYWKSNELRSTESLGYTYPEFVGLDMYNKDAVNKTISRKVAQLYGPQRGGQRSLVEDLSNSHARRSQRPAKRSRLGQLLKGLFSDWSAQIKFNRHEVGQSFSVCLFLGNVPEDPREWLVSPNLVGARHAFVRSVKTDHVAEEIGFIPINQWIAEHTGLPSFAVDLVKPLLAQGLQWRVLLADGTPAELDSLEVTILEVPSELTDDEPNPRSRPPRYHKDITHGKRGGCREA
Description: Tyrosinase Inhibition Assay. Particulars: pH 6.8; 25 °C. On the procedure:
In brief, a 10 μL sample was added to an assay mixture containing with 10 μL tyrosinase solution (0.5 mg/mL) and 900 μL phosphate buffer (pH 6.8) to a total volume assay mixture of 920 μL, for 20 min at 25°C. Then 80 μL of L-dopa (1.50 mg/mL) was added to the reaction mixture and the enzyme reaction was monitoredby measuring the change in absorbance at 475 nm of the L-dopa for 1 min.
In the case of `O=C(c1cccc(O)c1)c1ccc(O)cc1O` [Polyhydroxy benzophenone, 12], the IC50 is > 200 µM.

On to `O=C(c1ccccc1)c1c(O)cc(O)cc1O` [Polyhydroxy benzophenone, 16], for which the IC50 was > 200 µM.

As to `COc1cc(C(=O)c2ccc(O)c(O)c2O)ccc1O` [Polyhydroxy benzophenone, 9], inhibition was half-maximal at 6.4 µM (IC50).

On to `O=C(c1ccc(O)cc1O)c1c(O)cc(O)cc1O` [Polyhydroxy benzophenone, 11], for which the half-maximal inhibitory concentration (IC50) was > 200 µM.

For `O=C(c1ccccc1O)c1ccc(O)c(O)c1O` [Polyhydroxy benzophenone, 15], the IC50 came out at 8.8 µM.

Consider `O=C(c1ccc(O)cc1O)c1ccc(O)cc1O` [Polyhydroxy benzophenone, 4], for which the IC50 was > 200 µM.

In the case of `COc1cc(C(=O)c2ccc(O)cc2O)ccc1O` [Polyhydroxy benzophenone, 5], the IC50 was > 200 µM.

With `O=C(c1ccccc1)c1cccc(O)c1O` [Polyhydroxy benzophenone, 18], the IC50 was > 200 µM.

Take `O=C(c1cc(O)c(O)c(O)c1)c1ccc(O)cc1O` [Polyhydroxy benzophenone, 6]: the IC50 was 17.4 µM.

`O=C(c1ccccc1)c1ccc(O)c(O)c1O` [phenyl(2,3,4-trihydroxyphenyl)methanone]: it took 10.5 µM to reach half-maximal inhibition (IC50).

As for `O=C(c1ccc(O)cc1)c1ccc(O)c(O)c1O` [hsp90_136], the IC50 was > 100 µM.

With `O=C(c1ccc(O)cc1O)c1ccc(O)c(O)c1O` [Polyhydroxy benzophenone, 8], the IC50 was 10.1 µM.

As for `O=C(c1ccc(O)cc1)c1cc(O)c(O)c(O)c1` [Polyhydroxy benzophenone, 14], it took 98.3 µM to reach half-maximal inhibition (IC50).

With `O=C(c1cc(O)c(O)c(O)c1)c1ccc(O)c(O)c1O` [Polyhydroxy benzophenone, 10], the IC50 turned out to be 1.4 µM.

The record behind these values is BindingDB's records for doi:10.3109/14756366.2010.521745 (Sun Yat-Sen University, 2011).
